Experiments:
Test in all cases: relative viability (nuclei count vs DMSO), 5 days (fraction); higher = more cells survive
[1] = system: HARA
Method in brief: (§1)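 A single step with final 0.05% Triton X-100, 1% formaldehyde and 1 ug/ml Hoechst fixed the cells and stained nuclei 5 days after treatment. Lung cancer cell lines in 1536-well plates had been treated by pin tool the day after seeding with one drug alone or a fixed anchor-drug dose plus five library-drug doses (not always all listed) in √10 steps, and nuclei were counted on 4× images. Relative viability is the ratio of nuclei in treated wells to nuclei in vehicle wells, taken as the median of duplicate plates.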

[2] = system: NCI-H2023
Method in brief: as §1

[3] = system: NCI-H3122
Method in brief: as §1

[4] = system: BEN
Method in brief: as §1

[5] = system: NCI-H596
Method in brief: as §1

[6] = system: NCI-H23
Method in brief: as §1

[7] = system: HCC-44
Method in brief: as §1

[8] = system: NCI-H1395
Method in brief: as §1

[9] = system: LOU-NH91
Method in brief: as §1

[10] = system: 201T
Method in brief: as §1

[11] = system: NCI-H2347
Method in brief: as §1

[12] = system: NCI-H2087
Method in brief: as §1

[13] = system: NCI-H838
Method in brief: as §1

[14] = system: NCI-H441
Method in brief: as §1

[15] = system: EMC-BAC-2
Method in brief: as §1

[16] = system: NCI-H647
Method in brief: as §1

[17] = system: NCI-H650
Method in brief: as §1

[18] = system: LCLC-103H
Method in brief: as §1

[19] = system: NCI-H2126
Method in brief: as §1

[20] = system: NCI-H1993
Method in brief: as §1

[21] = system: NCI-H727
Method in brief: as §1

Work on `O=c1cc(-c2cccc3c2Sc2ccccc2S3)oc(N2CCOCC2)c1` + CS(=O)(=O)N1CCN(Cc2cc3nc(-c4cccc5[nH]ncc45)nc(N4CCOCC4)c3s2)CC1 [Pictilisib] (partner 1 µM) yielded a relative viability ([1]; first compound 0.08 µM) of 0.368, a relative viability ([1]; first compound 0.253 µM) of 0.378 and a relative viability ([1]; first compound 0.8 µM) of 0.419. The relative viability ([1]; first compound 2.53 µM) was 0.384, the relative viability ([1]; first compound 8 µM) was 0.627 and the relative viability ([2]; first compound 0.08 µM) was 0.213. The relative viability ([2]; first compound 0.253 µM) was 0.294, the relative viability ([2]; first compound 0.8 µM) was 0.244 and the relative viability ([2]; first compound 2.53 µM) was 0.218. The relative viability ([2]; first compound 8 µM) was 0.218, the relative viability ([3]; first compound 0.08 µM) was 0.481 and the relative viability ([3]; first compound 0.253 µM) was 0.755. It also gave a relative viability ([3]; first compound 0.8 µM) of 0.452, a relative viability ([3]; first compound 2.53 µM) of 0.595 and a relative viability ([3]; first compound 8 µM) of 0.568. It also gave a relative viability ([4]; first compound 0.08 µM) of 0.533, a relative viability ([4]; first compound 0.253 µM) of 0.671 and a relative viability ([4]; first compound 0.8 µM) of 0.531. It also gave a relative viability ([4]; first compound 2.53 µM) of 0.591, a relative viability ([4]; first compound 8 µM) of 0.686 and a relative viability ([5]; first compound 0.08 µM) of 0.34. The relative viability ([5]; first compound 0.253 µM) was 0.419, the relative viability ([5]; first compound 0.8 µM) was 0.357 and the relative viability ([5]; first compound 2.53 µM) was 0.371. It also gave a relative viability ([5]; first compound 8 µM) of 0.403, a relative viability ([6]; first compound 0.08 µM) of 0.559 and a relative viability ([6]; first compound 0.253 µM) of 0.523. For the same compound, the relative viability ([6]; first compound 0.8 µM) was 0.47, the relative viability ([6]; first compound 2.53 µM) was 0.4 and the relative viability ([6]; first compound 8 µM) was 0.457. It also gave a relative viability ([7]; first compound 0.08 µM) of 0.457, a relative viability ([7]; first compound 0.253 µM) of 0.655 and a relative viability ([7]; first compound 0.8 µM) of 0.536. For the same compound, the relative viability ([7]; first compound 2.53 µM) was 0.468, the relative viability ([7]; first compound 8 µM) was 0.577 and the relative viability ([8]; first compound 0.08 µM) was 0.634. The relative viability ([8]; first compound 0.253 µM) was 0.602, the relative viability ([8]; first compound 0.8 µM) was 0.534 and the relative viability ([8]; first compound 2.53 µM) was 0.579. The relative viability ([8]; first compound 8 µM) was 1.05, the relative viability ([9]; first compound 0.08 µM) was 0.519 and the relative viability ([9]; first compound 0.253 µM) was 0.542. For the same compound, the relative viability ([9]; first compound 0.8 µM) was 0.438, the relative viability ([9]; first compound 2.53 µM) was 0.504 and the relative viability ([9]; first compound 8 µM) was 0.531. For the same compound, the relative viability ([10]; first compound 0.08 µM) was 0.652, the relative viability ([10]; first compound 0.253 µM) was 0.718 and the relative viability ([10]; first compound 0.8 µM) was 0.51. The relative viability ([10]; first compound 2.53 µM) was 0.616, the relative viability ([10]; first compound 8 µM) was 0.742 and the relative viability ([11]; first compound 0.08 µM) was 0.633. It also gave a relative viability ([11]; first compound 0.253 µM) of 0.952, a relative viability ([11]; first compound 0.8 µM) of 0.567 and a relative viability ([11]; first compound 2.53 µM) of 0.733. It also gave a relative viability ([11]; first compound 8 µM) of 0.476, a relative viability ([12]; first compound 0.08 µM) of 0.954 and a relative viability ([12]; first compound 0.253 µM) of 1.15. It also gave a relative viability ([12]; first compound 0.8 µM) of 0.931, a relative viability ([12]; first compound 2.53 µM) of 0.87 and a relative viability ([12]; first compound 8 µM) of 0.973. For the same compound, the relative viability ([13]; first compound 0.08 µM) was 0.415, the relative viability ([13]; first compound 0.253 µM) was 0.643 and the relative viability ([13]; first compound 0.8 µM) was 0.372. For the same compound, the relative viability ([13]; first compound 2.53 µM) was 0.426, the relative viability ([13]; first compound 8 µM) was 0.408 and the relative viability ([14]; first compound 0.08 µM) was 0.533. The relative viability ([14]; first compound 0.253 µM) was 0.472, the relative viability ([14]; first compound 0.8 µM) was 0.513 and the relative viability ([14]; first compound 2.53 µM) was 0.426. It also gave a relative viability ([14]; first compound 8 µM) of 0.509, a relative viability ([15]; first compound 0.08 µM) of 0.535 and a relative viability ([15]; first compound 0.253 µM) of 0.582. It also gave a relative viability ([15]; first compound 0.8 µM) of 0.58, a relative viability ([15]; first compound 2.53 µM) of 0.548 and a relative viability ([15]; first compound 8 µM) of 0.538. For the same compound, the relative viability ([16]; first compound 0.08 µM) was 0.341, the relative viability ([16]; first compound 0.253 µM) was 0.499 and the relative viability ([16]; first compound 0.8 µM) was 0.365. For the same compound, the relative viability ([16]; first compound 8 µM) was 0.603, the relative viability ([17]; first compound 0.08 µM) was 0.807 and the relative viability ([17]; first compound 0.253 µM) was 0.873. It also gave a relative viability ([17]; first compound 0.8 µM) of 0.741, a relative viability ([17]; first compound 2.53 µM) of 0.806 and a relative viability ([17]; first compound 8 µM) of 0.767. The relative viability ([18]; first compound 0.08 µM) was 0.63, the relative viability ([18]; first compound 0.253 µM) was 0.531 and the relative viability ([18]; first compound 0.8 µM) was 0.505. The relative viability ([18]; first compound 2.53 µM) was 0.489, the relative viability ([18]; first compound 8 µM) was 0.616 and the relative viability ([19]; first compound 0.08 µM) was 0.454. The relative viability ([19]; first compound 0.253 µM) was 0.509, the relative viability ([19]; first compound 0.8 µM) was 0.412 and the relative viability ([19]; first compound 2.53 µM) was 0.452. It also gave a relative viability ([19]; first compound 8 µM) of 0.56, a relative viability ([20]; first compound 0.08 µM) of 0.942 and a relative viability ([20]; first compound 0.253 µM) of 0.759. For the same compound, the relative viability ([20]; first compound 0.8 µM) was 0.894, the relative viability ([20]; first compound 2.53 µM) was 0.846 and the relative viability ([20]; first compound 8 µM) was 0.805. It also gave a relative viability ([21]; first compound 0.253 µM) of 0.442, a relative viability ([21]; first compound 2.53 µM) of 0.285 and a relative viability ([21]; first compound 8 µM) of 0.528.

Reference: the supplement of paper PMC10307832
